Assay results as given in US20250074888A1, “PYRIDAZINE DERIVATIVES AS MODULATORS OF NLRP3 INFLAMMASOME AND RELATED METHODS” (Neumora Therapeutics, Inc., priority 2021, published 2025).

Legend:
[1] = target: NLRP3 inflammasome (Homo sapiens, UniProt Q96P20); assay: NLRP3 inflammasome activation in THP1 macrophages (LPS priming, nigericin), IL-1β AlphaLISA; format: cell-based; conditions: PMA-differentiated THP1, LPS 20 ng/ml 3 hrs, compound 1 hr, Nigericin 6.7 uM 3 hrs, supernatant
[2] = system: IL-6; assay: IL-6 release from LPS-primed, nigericin-treated THP1 macrophages, Hu IL-6 AlphaLISA; format: cell-based; conditions: Homo sapiens, THP-1; PMA-differentiated THP1, LPS 20 ng/ml 3 hrs, compound 1 hr, Nigericin 6.7 uM 3 hrs, supernatant

Sequence of NLRP3 inflammasome (Q96P20 whole entry): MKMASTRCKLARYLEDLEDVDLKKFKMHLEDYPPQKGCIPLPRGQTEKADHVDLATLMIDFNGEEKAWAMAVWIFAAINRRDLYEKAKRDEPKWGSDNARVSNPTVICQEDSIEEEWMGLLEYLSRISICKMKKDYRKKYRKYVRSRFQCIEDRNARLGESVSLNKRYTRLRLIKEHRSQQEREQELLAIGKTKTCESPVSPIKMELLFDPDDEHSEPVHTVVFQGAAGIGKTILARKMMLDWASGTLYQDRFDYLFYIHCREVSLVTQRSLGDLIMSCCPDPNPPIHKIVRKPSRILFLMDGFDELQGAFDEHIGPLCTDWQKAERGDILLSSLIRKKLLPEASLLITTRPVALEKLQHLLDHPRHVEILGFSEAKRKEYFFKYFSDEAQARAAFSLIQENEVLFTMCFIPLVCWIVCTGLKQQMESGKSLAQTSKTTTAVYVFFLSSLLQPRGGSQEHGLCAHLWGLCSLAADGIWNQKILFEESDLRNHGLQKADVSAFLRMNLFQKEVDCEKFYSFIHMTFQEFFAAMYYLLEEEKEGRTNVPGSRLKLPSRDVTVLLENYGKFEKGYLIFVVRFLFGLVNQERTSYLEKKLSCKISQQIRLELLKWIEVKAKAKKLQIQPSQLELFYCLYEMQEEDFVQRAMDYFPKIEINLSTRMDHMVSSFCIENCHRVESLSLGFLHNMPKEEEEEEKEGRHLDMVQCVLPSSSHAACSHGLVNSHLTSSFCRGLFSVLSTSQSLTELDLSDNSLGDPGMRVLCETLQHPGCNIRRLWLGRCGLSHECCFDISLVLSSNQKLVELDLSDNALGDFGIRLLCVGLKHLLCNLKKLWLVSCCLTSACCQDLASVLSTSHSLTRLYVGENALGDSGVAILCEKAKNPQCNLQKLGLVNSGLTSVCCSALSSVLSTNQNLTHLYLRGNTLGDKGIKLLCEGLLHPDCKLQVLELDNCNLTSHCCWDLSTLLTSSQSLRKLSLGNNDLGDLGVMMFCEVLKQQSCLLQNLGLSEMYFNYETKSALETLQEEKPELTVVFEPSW

| IC50 [1] [nM] | IC50 [2] [nM] | Structure (SMILES) |
| --- | --- | --- |
| > 1000 | > 10000 | Cc1cc(-c2ccc(N[C@@H]3CCCN(C)C3)nn2)cc(C)c1F [compound 106] |
| > 1000 | > 10000 | Cc1cc(-c2cc(C)c(F)c(C)c2)nnc1N[C@@H]1CCCN(C)C1 [compound 107] |
| > 1000 | > 10000 | Cc1cc(N[C@@H]2CCCN(C)C2)nnc1-c1ccc(F)c(C#N)c1 [compound 108] |
| > 1000 | > 10000 | Cc1cc(-c2ccc(F)c(C#N)c2)nnc1N[C@@H]1CCCN(C)C1 [compound 109] |
| > 1000 | 5000 to 10000 | Cc1cc(F)cc(C)c1-c1ccc(N[C@@H]2CCCN(C)C2)nn1 [compound 110] |
| > 1000 | > 10000 | CN1CCC[C@@H](Nc2nnc(-c3ccc(C(F)(F)F)cc3)cc2C(F)(F)F)C1 [compound 111] |
| > 1000 | > 10000 | Cc1cc(-c2cc(C)c(N[C@@H]3CCCN(C)C3)nn2)ccc1F [compound 112] |
| > 1000 | > 10000 | Cc1cc(-c2ccc(C(F)(F)F)c(C#N)c2)nnc1N[C@@H]1CCCN(C)C1 [compound 113] |
| > 1000 | > 10000 | Cc1cc(N[C@@H]2CCCN(CC(F)(F)F)C2)nnc1-c1ccc(C(F)(F)F)cc1 [compound 114] |
| > 1000 | 5000 to 10000 | Cc1cc(N[C@@H]2CCCN(CC(F)(F)F)C2)nnc1-c1ccc(F)cc1 [compound 115] |
| > 1000 | > 10000 | Cc1cc(N[C@@H]2CCCN(CC(F)F)C2)nnc1-c1ccc(F)cc1 [compound 116] |
| > 1000 | > 10000 | Cc1cc(-c2ccc(F)c(F)c2)nnc1N[C@@H]1CCCN(C)C1 [compound 117] |
| > 1000 | > 10000 | Cc1cc(N[C@H]2CCCN(C)C2)nnc1-c1ccc(C(F)(F)F)cc1 [compound 118] |
| > 1000 | > 10000 | Cc1cc(N[C@H]2CN(C)CC(F)(F)C2)nnc1-c1ccc(F)cc1 [compound 119] |
| 50 to 100 | > 10000 | Cc1cc(N[C@@H]2CCCN(C3CC3)C2)nnc1-c1ccc(F)cc1 [compound 120] |
| 100 to 500 | > 10000 | Cc1cc(N[C@H]2CN(C)CC[C@H]2F)nnc1-c1ccc(F)cc1 [compound 121] |
| 10 to 50 | > 10000 | CCN1CCC[C@@H](Nc2cc(C)c(-c3ccc(F)cc3)nn2)C1 [compound 122] |
| ≤ 10 | > 10000 | Cc1cc(Cl)ccc1-c1nnc(N[C@@H]2CCCN(C)C2)cc1C [compound 123] |
| 10 to 50 | 5000 to 10000 | Cc1cc(Cl)ccc1-c1cc(C)c(N[C@@H]2CCCN(C)C2)nn1 [compound 124] |
| 50 to 100 | > 10000 | Cc1cc(Cl)ccc1-c1ccc(N[C@@H]2CCCN(C)C2)nn1 [compound 125] |
| > 1000 | > 10000 | CN1CCC[C@@H](Nc2ccc(-c3ccc(F)cc3)nn2)C1 [compound 126] |
| ≤ 10 | > 10000 | Cc1cc(N[C@@H]2CCCN(C)C2)nnc1-c1ccc(Cl)cc1 [compound 127] |
| 100 to 500 | > 10000 | Cc1cc(-c2ccc(Cl)cc2)nnc1N[C@@H]1CCCN(C)C1 [compound 128] |
| 50 to 100 | > 10000 | CN1CCC[C@@H](Nc2ccc(-c3ccc(Cl)cc3)nn2)C1 [compound 129] |
| 10 to 50 | 5000 to 10000 | CN1CCC[C@@H](Nc2ccc(-c3ccc(F)cc3C(F)(F)F)nn2)C1 [compound 130] |
| 500 to 1000 | > 10000 | Cc1cc(N[C@H]2CCCN(C(C)C)C2)nnc1-c1ccc(C(F)(F)F)cc1 [compound 131] |
| 10 to 50 | > 10000 | Cc1cc(F)ccc1-c1nnc(N[C@@H]2CCCN(C)C2)cc1C [compound 132] |
| 10 to 50 | > 10000 | Cc1cc(F)ccc1-c1cc(C)c(N[C@@H]2CCCN(C)C2)nn1 [compound 133] |
| 100 to 500 | > 10000 | Cc1cc(F)ccc1-c1ccc(N[C@@H]2CCCN(C)C2)nn1 [compound 134] |
